Experimental data taken from patent US9650334B2 (AbbVie Deutschland GmbH & Co. KG, priority 2013, dated 2017).

Molecular target: T1, human GlyT1c transporter (Homo sapiens, UniProt P48067)
T1 sequence (P48067 1-706): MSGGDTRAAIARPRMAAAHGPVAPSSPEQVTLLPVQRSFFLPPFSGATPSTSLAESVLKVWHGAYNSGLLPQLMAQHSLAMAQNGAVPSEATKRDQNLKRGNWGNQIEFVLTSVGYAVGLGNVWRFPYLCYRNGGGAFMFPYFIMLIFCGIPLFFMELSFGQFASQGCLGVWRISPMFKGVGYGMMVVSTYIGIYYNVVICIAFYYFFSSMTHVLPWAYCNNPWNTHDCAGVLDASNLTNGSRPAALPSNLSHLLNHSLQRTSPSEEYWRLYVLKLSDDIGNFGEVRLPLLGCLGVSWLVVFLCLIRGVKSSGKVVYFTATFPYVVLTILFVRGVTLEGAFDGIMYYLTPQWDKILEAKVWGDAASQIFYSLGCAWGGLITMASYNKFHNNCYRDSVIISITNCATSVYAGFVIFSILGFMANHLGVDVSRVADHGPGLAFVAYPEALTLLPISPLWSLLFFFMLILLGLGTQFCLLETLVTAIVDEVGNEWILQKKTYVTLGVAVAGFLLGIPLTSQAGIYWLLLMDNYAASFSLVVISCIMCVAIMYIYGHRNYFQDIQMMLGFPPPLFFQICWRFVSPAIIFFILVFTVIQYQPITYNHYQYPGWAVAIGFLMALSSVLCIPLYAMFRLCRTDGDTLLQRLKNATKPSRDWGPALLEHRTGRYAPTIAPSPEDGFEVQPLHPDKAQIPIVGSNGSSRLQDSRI
Test: Radioligand binding assays using recombinant CHO cell membranes expressing human GlyT1
Settings: Ki, radioligand binding to human GlyT1c transporter-expressing CHO cell membranes

| SMILES | Ki [nM] |
| --- | --- |
| Cn1cnc(S(=O)(=O)N2CC3CCCN(C(=O)c4cccc(C(F)(F)F)c4Cl)C3C2)c1 (stereo not shown) [Example 874, [2-chloro-3-(trifluoromethyl)phenyl]{6-[(1-methyl-1H-imidazol-4-yl)sulfonyl]octahydro-1H-pyrrolo[3,4-b]pyridin-1-yl}methanone] | ≤ 10000 |
| Cc1cccc(C(N[C@H]2CN(S(=O)(=O)c3cn(C)cn3)C[C@@H]2c2ccc(F)cc2)C(F)(F)F)c1 (stereo partly drawn) [Example 875, (3R,4S)-4-(4-fluorophenyl)-1-[(1-methyl-1H-imidazol-4-yl)sulfonyl]-N-[2,2,2-trifluoro-1-(3-methylphenyl)ethyl]pyrrolidin-3-amine] | ≤ 10000 |
| Cc1ccc(C(N[C@H]2CN(S(=O)(=O)c3cn(C)cn3)C[C@@H]2c2ccc(F)cc2)C(F)(F)F)cc1 (stereo partly drawn) [Example 876, (3R,4S)-4-(4-fluorophenyl)-1-[(1-methyl-1H-imidazol-4-yl)sulfonyl]-N-[2,2,2-trifluoro-1-(4-methylphenyl)ethyl]pyrrolidin-3-amine] | ≤ 1000 |
| Cn1cnc(S(=O)(=O)N2[C@@H]3CC[C@H]2[C@H](c2ccc(F)cc2)[C@H]3Nc2ccc(F)c(C(F)(F)F)c2)c1 [Example 877, (1R,2R,3R,4S)-3-(4-fluorophenyl)-N-[4-fluoro-3-(trifluoromethyl)phenyl]-7-[(1-methyl-1H-imidazol-4-yl)sulfonyl]-7-azabicyclo[2.2.1]heptan-2-amine] | ≤ 10000 |
| Cn1cnc(S(=O)(=O)N2C3CCC2C(c2ccc(F)cc2)C3Nc2ccc(F)c(C(F)(F)F)c2)c1 (stereo not shown) [Example 878, 3-(4-fluorophenyl)-N-[4-fluoro-3-(trifluoromethyl)phenyl]-7-[(1-methyl-1H-imidazol-4-yl)sulfonyl]-7-azabicyclo[2.2.1]heptan-2-amine] | ≤ 10000 |
| Cn1cnc(S(=O)(=O)N2CC3CCCN(Cc4ccc(C(F)(F)F)cc4Cl)C3C2)c1 (stereo not shown) [Example 879, 1-[2-chloro-4-(trifluoromethyl)benzyl]-6-[(1-methyl-1H-imidazol-4-yl)sulfonyl]octahydro-1H-pyrrolo[3,4-b]pyridine] | ≤ 1000 |
| Cn1cnc(S(=O)(=O)N2CC3CCCN(C(=O)c4ccc(C(F)(F)F)cc4Cl)C3C2)c1 (stereo not shown) [Example 880, [2-chloro-4-(trifluoromethyl)phenyl]{6-[(1-methyl-1H-imidazol-4-yl)sulfonyl]octahydro-1H-pyrrolo[3,4-b]pyridin-1-yl}methanone] | ≤ 1000 |
| Cn1cnc(S(=O)(=O)N2CC(C(=O)NCc3ccc(F)c(Cl)c3)C3(CCCCC3)C2)c1 (stereo not shown) [Example 881, N-(3-chloro-4-fluorobenzyl)-2-[(1-methyl-1H-imidazol-4-yl)sulfonyl]-2-azaspiro[4.5]decane-4-carboxamide] | ≤ 1000 |
| Cn1cnc(S(=O)(=O)N2CC(C(=O)NCc3ccc(F)c(F)c3)C3(CCCCC3)C2)c1 (stereo not shown) [Example 882, N-(3,4-difluorobenzyl)-2-[(1-methyl-1H-imidazol-4-yl)sulfonyl]-2-azaspiro[4.5]decane-4-carboxamide] | ≤ 1000 |
| Cn1cnc(S(=O)(=O)N2C[C@H](c3ccc(F)cc3)[C@@H](N3C(=O)Cc4ccccc43)C2)c1 [Example 883, 1-{(3R,4S)-4-(4-fluorophenyl)-1-[(1-methyl-1H-imidazol-4-yl)sulfonyl]pyrrolidin-3-yl}-1,3-dihydro-2H-indol-2-one] | ≤ 10000 |
| Cn1cnc(S(=O)(=O)N2CC3CCCCC3(NCc3ccc(C(F)(F)F)cc3)C2)c1 (stereo not shown) [Example 884, 2-[(1-methyl-1H-imidazol-4-yl)sulfonyl]-N-[4-(trifluoromethyl)benzyl]octahydro-3aH-isoindol-3a-amine] | ≤ 100 |
| Cn1cnc(S(=O)(=O)N2CC(COc3ccc(F)cc3)C(c3ccccn3)C2)c1 (stereo not shown) [Example 886, 2-{4-[(4-fluorophenoxy)methyl]-1-[(1-methyl-1H-imidazol-4-yl)sulfonyl]pyrrolidin-3-yl}pyridine] | ≤ 1000 |
| Cn1cnc(S(=O)(=O)N2CC(Nc3cccc(OC(F)(F)F)c3)c3ccccc32)c1 (stereo not shown) [Example 887, 1-[(1-methyl-1H-imidazol-4-yl)sulfonyl]-N-[3-(trifluoromethoxy)phenyl]-2,3-dihydro-1H-indol-3-amine] | ≤ 100 |
| Cn1cnc(S(=O)(=O)N2CC3c4ccccc4CCC3(Oc3cc(C(F)(F)F)ncn3)C2)c1 (stereo not shown) [Example 888, 2-[(1-methyl-1H-imidazol-4-yl)sulfonyl]-3a-{[6-(trifluoromethyl)pyrimidin-4-yl]oxy}-2,3,3a,4,5,9b-hexahydro-1H-benzo[e]isoindole] | ≤ 1000 |
| Cn1cnc(S(=O)(=O)N2CC3c4ccccc4CCC3(NCc3ccc(F)cc3)C2)c1 (stereo not shown) [Example 889, N-(4-fluorobenzyl)-2-[(1-methyl-1H-imidazol-4-yl)sulfonyl]-1,2,3,4,5,9b-hexahydro-3aH-benzo[e]isoindol-3a-amine] | ≤ 100 |
| Cn1cc(S(=O)(=O)N2CC3c4ccccc4CC3(Nc3cc(C(F)(F)F)ncn3)C2)nn1 (stereo not shown) [Example 891, 2-[(1-methyl-1H-1,2,3-triazol-4-yl)sulfonyl]-N-[6-(trifluoromethyl)pyrimidin-4-yl]-2,3,3a,8-tetrahydroindeno[1,2-c]pyrrol-8a(1H)-amine] | ≤ 100 |
| CN1CCCCC1C1CN(S(=O)(=O)c2cn(C)cn2)CC1NC1CCc2ccccc21 (stereo not shown) [Example 893, N-(2,3-dihydro-1H-inden-1-yl)-1-[(1-methyl-1H-imidazol-4-yl)sulfonyl]-4-(1-methylpiperidin-2-yl)pyrrolidin-3-amine] | ≤ 100 |
| CN1CCCCC1C1CN(S(=O)(=O)c2cn(C)cn2)CC1Nc1cccc(OCC(F)(F)F)c1 (stereo not shown) [Example 894, 1-[(1-methyl-1H-imidazol-4-yl)sulfonyl]-4-(1-methylpiperidin-2-yl)-N-[3-(2,2,2-trifluoroethoxy)phenyl]pyrrolidin-3-amine] | ≤ 10 |
| Cn1cnc(S(=O)(=O)N2CC(Nc3cccc(OC(F)(F)F)c3)C(c3ccc(F)cn3)C2)c1 (stereo not shown) [Example 895, 4-(5-fluoropyridin-2-yl)-1-[(1-methyl-1H-imidazol-4-yl)sulfonyl]-N-[3-(trifluoromethoxy)phenyl]pyrrolidin-3-amine] | ≤ 10 |
| Cn1cc(S(=O)(=O)N2C[C@H](Nc3cccc(OC(F)(F)F)c3)[C@@H](C3OCCCO3)C2)nn1 [Example 896, (3R,4S)-4-(1,3-dioxan-2-yl)-1-[(1-methyl-1H-1,2,3-triazol-4-yl)sulfonyl]-N-[3-(trifluoromethoxy)phenyl]pyrrolidin-3-amine] | ≤ 10 |
| CN1CCCCC1C1CN(S(=O)(=O)c2cn(C)cn2)CC1Nc1cccc(OC(F)(F)F)c1 (stereo not shown) [Example 898, 1-[(1-methyl-1H-imidazol-4-yl)sulfonyl]-4-(1-methylpiperidin-2-yl)-N-[3-(trifluoromethoxy)phenyl]pyrrolidin-3-amine] | ≤ 10 |
| Cn1cnc(S(=O)(=O)N2C[C@H](Nc3cccc(OCC(F)(F)F)c3)[C@@H](C3OCCCO3)C2)c1 [Example 899, (3R,4S)-4-(1,3-dioxan-2-yl)-1-[(1-methyl-1H-imidazol-4-yl)sulfonyl]-N-[3-(2,2,2-trifluoroethoxy)phenyl]pyrrolidin-3-amine] | ≤ 100 |
| Cn1cnc(S(=O)(=O)N2C[C@H](Nc3cccc(OC(F)(F)F)c3)[C@@H](C3OCC(C)(C)CO3)C2)c1 [Example 900, (3R,4S)-4-(5,5-dimethyl-1,3-dioxan-2-yl)-1-[(1-methyl-1H-imidazol-4-yl)sulfonyl]-N-[3-(trifluoromethoxy)phenyl]pyrrolidin-3-amine] | ≤ 1000 |
| Cn1cnc(S(=O)(=O)N2C[C@H](Nc3cccc(OC(F)(F)F)c3)[C@@H](C3OCCO3)C2)c1 [Example 902, (3R,4S)-4-(1,3-dioxolan-2-yl)-1-[(1-methyl-1H-imidazol-4-yl)sulfonyl]-N-[3-(trifluoromethoxy)phenyl]pyrrolidin-3-amine] | ≤ 1000 |
| Cn1cnc(S(=O)(=O)N2C[C@H](NC3CCc4ccccc43)[C@@H](C3OCCCO3)C2)c1 (stereo partly drawn) [Example 903, (3R,4S)-N-(2,3-dihydro-1H-inden-1-yl)-4-(1,3-dioxan-2-yl)-1-[(1-methyl-1H-imidazol-4-yl)sulfonyl]pyrrolidin-3-amine] | ≤ 10 |
| Cn1cnc(S(=O)(=O)N2C[C@H](NCc3ccc(C(F)(F)F)cc3Cl)[C@@H](C3OCCCO3)C2)c1 [Example 904, (3R,4S)-N-[2-chloro-4-(trifluoromethyl)benzyl]-4-(1,3-dioxan-2-yl)-1-[(1-methyl-1H-imidazol-4-yl)sulfonyl]pyrrolidin-3-amine] | ≤ 10 |
| Cn1cnc(S(=O)(=O)N2C[C@H](NCc3cccc(OC(F)(F)F)c3)[C@@H](C3OCCCO3)C2)c1 [Example 905, (3R,4S)-4-(1,3-dioxan-2-yl)-1-[(1-methyl-1H-imidazol-4-yl)sulfonyl]-N-[3-(trifluoromethoxy)benzyl]pyrrolidin-3-amine] | ≤ 1000 |
| Cn1cnc(S(=O)(=O)N2C[C@H](NCc3ccc(F)cc3)[C@@H](C3OCCCO3)C2)c1 [Example 906, (3R,4S)-4-(1,3-dioxan-2-yl)-N-(4-fluorobenzyl)-1-[(1-methyl-1H-imidazol-4-yl)sulfonyl]pyrrolidin-3-amine] | ≤ 1000 |
